# Assay results: patent US7671181B2, “Polynucleotides encoding coccidian parasite casein kinase I, a chemotherapeutic target for antiprotozoal agents” (Merck Sharp & Dohme Corp., priority 2004, dated 2010)
# Experiments:
# T. gondii tachyzoites = assay: [3H]-uracil uptake assay of parasite growth inhibition in infected HFF cell monolayers; format: cell-based, Toxoplasma gondii; details: infected HFF cell monolayers, 36-48 hours; read-out: IC50 against T. gondii in the uracil uptake assay
# Excerpt: Host cells and parasite cultures—RH strain or RH ΔHXGPRT strain tachyzoites of T. gondii were maintained by serial passage in confluent monolayers of human foreskin fibroblasts (“HFF”) as described (Roos, D. S. et al., 1994, Methods Cell Biol. 45:27-63). A modified [^3H]-uracil uptake assay (Pfefferkorn, E. R. and Pfefferkorn, L. C., 1977, J. Protozool. 24:449-453) adapted for use in 96-well scintillation plates (Cytostar-T, Amersham; Piscataway, N.J.) was used to measure parasite growth inhibition. Each well, previously seeded with HFF cells, was inoculated with T. gondii tachyzoites (2×10^4) in 200 μl of growth media containing 2 μCi [5,6]-^3H-uracil (Perkin-Elmer NEN; Boston, Mass.) and serially diluted compound. Following incubation at 37° C. for 36-48 hours, tritium-incorporation into host cell monolayers was directly counted in a microplate scintillation counter (MicroBeta, PerkinElmer-Wallac).
# TgCKIα = TgCKIα (Toxoplasma gondii, UniProt Q6QNM1); assay: Casein kinase assay, TgCKIα (recombinant FLAGTgCKIα or partially purified native); format: biochemical; design: Km(app), native TgCKIα; other: substrate titration, 2 μM ATP; IC50, nativeTgCKIα; other: partially purified native enzyme from Toxoplasma tachyzoites; sensitivity of native TgCKIα phosphopeptide kinase activity (HiTrapQ fractions 5-9); other: 0.2 μM hymenialdisine or 1; details: 0.2 μM hymenialdisine or 1 μM purvalanol B
# Chain of TgCKIα (Q6QNM1 whole entry, looked up): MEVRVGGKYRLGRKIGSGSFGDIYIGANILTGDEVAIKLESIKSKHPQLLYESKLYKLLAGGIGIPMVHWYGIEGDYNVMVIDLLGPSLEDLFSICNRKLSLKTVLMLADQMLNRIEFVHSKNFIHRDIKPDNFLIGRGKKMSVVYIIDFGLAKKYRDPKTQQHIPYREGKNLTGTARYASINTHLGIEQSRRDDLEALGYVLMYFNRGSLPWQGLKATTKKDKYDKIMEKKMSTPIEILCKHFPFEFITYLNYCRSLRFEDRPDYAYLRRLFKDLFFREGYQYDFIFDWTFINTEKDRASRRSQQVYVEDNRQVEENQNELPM
# Experimental: Protein kinase assays—Casein kinase activity was assayed essentially as described (Donald, R. G. K. et al., 2002, supra) using 96-well phosphocellulose plates (MAPH-NOB, Millipore; Billerica, Mass.) to capture ^33P-phosphorylated peptide or casein substrates. Kinase reactions were carried out in 40 μl volumes containing 25 mM Hepes, pH 7.4, 10 mM MgCl2, 20 mM β-glycerophosphate, 1 mM DTT, 250 μM substrate, 1 mg/mL BSA, 2 μM ATP, and 0.01 μM [γ-^33P]ATP (Perkin-Elmer, 3000 Ci/mmol). […] Casein (5% solution), partially dephosphorylated α-casein and β-casein were obtained from Sigma.
# A variety of commercially available peptide substrates were evaluated. From Calbiochem (San Diego, Calif.): CKI substrate (RRKDLHDDEEDEAMSITA; SEQ ID NO:13); CKII substrate (RRADDSDDDDD; SEQ ID NO:14); Syntide-2 substrate (PLARTLSVAGLPGKK; SEQ ID NO:15); CaM kinase II substrate (281-291) (MHKNETVECLK; SEQ ID NO:16). From Promega: CKI substrate (DDDEESITRR; SEQ ID NO:17) and kemptide (LRRASLG; SEQ ID NO:18). From New England Biolabs (Beverly, Mass.): CKI phosphopeptide substrate (KRRRALS(p)VASLPGL; SEQ ID NO:19), and CKII substrate (RRREEETEEE; SEQ ID NO:20). PKG assays were performed with kemptide as substrate and 10 μM cGMP. CDPK was assayed with Syntide-2 substrate and in the presence of 100 μM CaCl2.
# Purification of recombinant CKI enzymes—E. coli strain BL21 Origami™ (Novagen) was transformed with FLAGTgCKIα and FLAGTgCKIβ expression vectors, and colonies were expanded into 250 mL LB cultures grown at 37° C. Expression was induced with 1 mM IPTG once cultures had reached an OD600nm of 0.3-0.5, and the transformed bacteria were harvested 4-6 hours later. Cell pellets were resuspended in 15 mL of lysis buffer containing protease inhibitors and lysates prepared as described by the supplier (Bugbuster™ reagents, Novagen). The concentration of NaCl in the lysate was adjusted to 0.5 M, and 0.5 mL of FLAG-agarose beads were added (Sigma). The mixture was allowed to rock in a Nutator mixer (Becton-Dickinson; San Jose, Calif.) for 2 hours at 4° C. The slurry was then poured into an empty column and the matrix washed with 50 mL of wash buffer (50 mM Tris-HCl, pH 7.4, 0.5M NaCl, 10% glycerol, 1 mM DTT, 1 mM EDTA). […] Protein was measured with a micro-BCA reagent (Pierce) following a TCA-sodium deoxycholate step to remove residual FLAG peptide (Brown et al., 1989, Anal. Biochem. 180:136-139). […]
# Preparations of FLAGTgCKIα and FLAGTgCKIβ were purified further on a SMART system FPLC 0.1 mL MonoQ anion exchange column (Pharmacia; New York, N.Y.) equilibrated in buffer A (50 mM Hepes, pH 7.4, 10% glycerol, 1 mM DTT) at room temperature. […] A linear salt gradient was applied (0-500 mM in 3 mL at 100 μl/min) and 100 μl fractions were collected and analyzed by SDS-PAGE and for CKI activity. […]
smiles,measurement,setting,value
CC(C)[C@H](CO)Nc1nc(Nc2ccc(C(=O)O)c(Cl)c2)c2ncn(C(C)C)c2n1 [purvalanol B],IC50,T. gondii tachyzoites,260 nM
same,sensitivity of native TgCKIα phosphopeptide kinase activity (HiTrapQ fractions 5-9),TgCKIα,sensitive
